Where a SMILES comes first, the peptide text is derived from it. The star is where a group is joined. Cbz = O=C(OCc1ccccc1)*
Assays:
[1] = tested on: p21^cip1 abundance in mock-infected LU cells; assay: Western blot of p21cip1 abundance in mock-infected, density-arrested LU cells; format: cell-based, human
Description: (§1) Cell culture and growth arrest. LU cells (3) were propagated in Eagle's minimum essential medium containing 10% fetal bovine serum and penicillin (100 units/ml)/streptomycin (100 μg/ml) in a 5% CO2 in air atmosphere. The cells were density-arrested as described previously in detail (18).
(§2) Virus stocks and productive infection. The AD169 strain of HCMV was propagated in LU cells as previously described in detail (6). The infectivity of virus stocks was determined by plaque assay (3). Virus stocks typically had infectivities between 8.0×10^6 and 4.0×10^7 plaque-forming units (PFU)/milliliter. LU cells were infected with HCMV as described in detail by Bresnahan et al. (18). Virus stocks and cell cultures were routinely examined for mycoplasma.
(§3) Western blots. Polyclonal or monoclonal antibody for p21^cip1 was obtained from Santa Cruz Biotechnology, Inc. (Santa Cruz, Calif.). Monoclonal antibodies against m-calpain, μ-calpain or calpastatin were generously provided by Dr. R. I. Mellgren (see also 75). Cells were harvested as described previously (18) by dislodging the cells with a cell lifter in phosphate buffered saline. The cells were collected by sedimentation and lysed in NP-40 lysis buffer [50 mM Tris, pH 7.4, 50 mM NaCl, 0.5% NP-40, and 1 mM NaVO3, 50 mM NaF, 1mM phenylmethylsulfonyl fluoride (PMSF), 1 mM dithiothreitol (DTT), 25 μg/ml trypsin inhibitor, 25 μg/ml aprotinin, 1 mM benzamide, and 25 μg/ml pepstatin A added just before use]. Cellular debris was removed by sedimentation and the supernatant fluids were reserved. The protein concentration was determined by the BCA protein assay (Pierce, Rockford, Ill.). Whole cell extracts (40 μg/lane) were fractionated by SDS-polyacrylamide gel electrophoresis (PAGE), and the polypeptides were transferred to nitrocellulose membranes (Bio-Rad Laboratories, Hercules, Calif.) as described previously (18). Antigen-antibody reactions were detected with the enhanced chemiluminescent assay (Amersham Pharmacia Biotech) following the manufacturer's recommendations.
FIGS. 5 and 6. The effect of MG132, an inhibitor of proteasome degradation, on p21^cip1 abundance in HCMV- or mock-infected, density-arrested LU cells. 5. LU cells were density arrested, as described in Materials and Methods. The cell cultures were HCMV (5 PFU/cell)- or mock-infected and then exposed to selected concentrations of MG132 at 24 hr PI. Cell lysates were prepared at 30 hr PI (i.e., 6 hr after […] treatment), and 40 μg of protein from each lysate was resolved by SDS-PAGE. The proteins were transferred to nitrocellulose and probed with antibodies against p21^cip1. Control, cells cultured in the absence of MG132 or its solvent, DMSO. 0, DMSO solvent control, consisting of cells treated with the same concentration of DMSO (0.1%) present in the cultural fluids containing highest concentration of MG132 (10 μM). 6. Represents the abundance of p21^cip1 after MG132 treatment determined by densitometry of the data illustrated in FIG. 5. The data for mock-infected cells (open bars) were calculated relative to the p21^cip1 abundance in untreated mock-infected cells, while the data for HCMV-infected cells (closed bars) were determined relative to the p21^cip1 abundance in untreated HCMV-infected cells.
FIGS. 7 and 8. […]
At the times indicated in the FIG., whole cell lysates were prepared, and 40 μg of protein from each lysate was analyzed by SDS-PAGE. […]

[2] = tested on: p21^cip1 abundance in HCMV-infected LU cells; assay: Western blot of p21cip1 abundance in HCMV-infected, density-arrested LU cells; format: cell-based, human
Description: as §1, §2
as §3, with “recommendations. […]” for “recommendations.”
FIGS. 9 and 10. The concentration effect of E64d on p21^cip1 abundance in HCMV-infected cells. 9: LU cells were density arrested as described in Materials and Methods. The cells were HCMV (5 PFU/cell) or mock infected, and at 48 hr PI were treated with selected concentrations of E64d. Whole cell lysates were prepared 6 hr later, and 40 μg of protein from each lysate was resolved by SDS-PAGE. The proteins were transferred to nitrocellulose and probed with antibodies to p21^cip1. Mock: mock-infected cells in the absence of drug. Control, untreated HCMV-infected cells. 0, DMSO solvent control, consisting of HCMV-infected cells treated with the same concentration of DMSO solvent (0.1%) contained in the highest concentration of E64d. 10: Represents the abundance of p21^cip1 determined by densitometric analysis of the data in FIG. 9.
FIGS. 11 and 12. The concentration effect of Z-Leu-Leu-H on p21^cip1 abundance in HCMV-infected cells. 11. LU cells were density arrested as described in Materials and Methods. The cells were HCMV (5 PFU/cell) infected, and at 48 hr PI were treated with selected concentrations of Z-Leu-Leu-H. Whole cell lysates were prepared 6 hr later, and 40 μg of protein from each lysate was resolved by SDS-PAGE. The proteins were transferred to nitrocellulose and probed with antibodies to p21^cip1. Mock, Control, and 0 are defined as in the legend to FIG. 9. 12 : Represents the abundance of p21^cip1 determined by densitometric analysis of the data in FIG. 11.
FIGS. 13 and 14. The time course for the effect of E64d on p21^cip1 abundance in HCMV-infected, density-arrested cells. 13: LU cells were density arrested, as described in Materials and Methods. The cells were HCMV (5 PFU/cell) or mock infected, and at the intervals indicated in the Fig., beginning 1 hr after infection, subsets of the cells were treated with E64d (100 μM). […]

| Compound | increase in p21^cip1 abundance relative to DMSO solvent control or cells in the absence of any chemical ([1]; MG132 10 μM, mock-infected density-arrested LU cells, densitometry of Western blot (FIGS. 5 and 6)) | slope of the concentration effect on p21^cip1 abundance (linear regression analysis) ([1]; mock-infected cells, MG132 0 to 10 μM, p<0.01) | change in p21^cip1 abundance (in words) ([1]; mock-infected density-arrested LU cells, MG132 0 to 10 μM) | slope of the concentration effect on p21^cip1 abundance (linear regression analysis) ([2]; HCMV-infected cells, MG132 0 to 10 μM, p<0.01) | change in p21^cip1 abundance (in words) ([2]; HCMV-infected cells, MG132 2.5 μM to 10 μM, compared with mock-infected cells) | p21^cip1 abundance as % of that measured in mock-infected cells ([2]; 100 μM, HCMV-infected cells treated at 48 hr PI, lysates 6 hr later) | protection of p21^cip1, concentration effect (in words) ([2]; HCMV-infected cells treated at 48 hr PI for 6 hr, selected concentrations up to 100 μM) |
| --- | --- | --- | --- | --- | --- | --- | --- |
| CC(C)C[C@@H](C=O)NC(=O)[C@H](CC(C)C)NC(=O)[C@H](CC(C)C)NC(=O)OCc1ccccc1 [MG132] (Cbz-Leu-Leu-Leu-aldehyde) | 3.6 fold | 0.33 | concentration-dependent increase in the abundance of p21^cip1 | 0.19 | smaller increases in p21^cip1 abundance |  |  |
| CC(C)CC(C=O)NC(=O)C(CC(C)C)NC(=O)OCc1ccccc1 (stereo not drawn) [Z-Leu-Leu-H] |  |  |  |  |  | about 72% | protected p21^cip1 in a concentration-dependent manner |

From US7271148B2, “Inhibition of cellular proteases” (The Board of Regents of The University of Texas System, priority 1999, dated 2007)
